Data as given in patent US11180510B2, “Xanthine derivatives and uses thereof as inhibitors of bromodomains of BET proteins” (Centre national de la recherche scientifique, priority 2017, dated 2021).
Read-outs that look alike come from different tables or passages of the source.

Legend:
Brdt(BD1) = biological target: T1, Brdt(BD1) (Homo sapiens, UniProt Q58F21); test: HTRF BET selectivity profile, Brdt(BD1); type: binding
T1 construct: GST tagged bromodomain proteins were purchased from BPS Bioscience; purchased BPS Bioscience
Method: (§1) HTRF assays were performed in white 384 Well Small Volume™ HiBase Polystyrene Microplates (Greiner) with a total working volume of 20 μL. Compounds were dispensed, with 100 nL per well (0.5% final DMSO), from a concentration stock of 10 mM in 100% DMSO and with serial DMSO dilutions, using an Echo® 550 robot from the Access Labcyte platform (Labcyte) and based on the transfer of liquid by acoustic wave. Then, 19.5 μL of buffer is added, using a Multidrop Combi (Thermo Fisher Scientific). Finally, for each assay, 200 nL of master mix (protein+donor+acceptor) and 200 nL of peptide Is added in the assay wells according to the final concentration and buffer described in Table 3, using the Echo® 550 robot (Labcyte). The IC50 measurements were performed in triplicates (Table 2 and 3). All HTRF reagents (donor and acceptor) were purchased from CisBio Bioassays and reconstituted according to the supplier protocols. The peptide was purchased from Genic Bio Synthetic. The BRD4(1) protein was produced and purified in the laboratory. HTRF signals were measured, after a final incubation (3 h or 6 h or overnight at room temperature or 4° C., according to the bromodomain), using a PHERAstar FS (BMG Labtech) with an excitation filter at 337 nm and fluorescence wavelength measurement at 620 and 665 nm, an integration delay of 60 μs and an integration time of 500 μs. Results were analyzed with a two-wavelengths signal ratio: [intensity (665 nm)/intensity (620 nm)]*104.
(§2) Percentage of inhibition was calculated using the following equation: % inhibition=[(compound signal)−(min signal)]/[(max signal)−(min signal)]*100, where ‘max signal’ is the signal ratio with the compound vehicle alone (DMSO) and ‘min signal’ the signal ratio without peptide.
(§3) Selectivity profiles of bromodomain inhibitors were performed as described in HTRF screen section. […] HTRF detection reagents (EPIgeneous™ Binding Domain kits) were purchased from Cisbio Bioassays and used according to supplier's protocol. GST tagged bromodomain proteins were purchased from BPS Bioscience and histone peptide from Genic Bio Synthetic.

Jurkat cells = test: Cell Titer-Glo cell viability assay, Jurkat; type: cell-based; conditions: Homo sapiens, 72 h, mean of three experiments, NA = IC50 > maximal concentration used
Method: (§4) The human leukemia cell line Jurkat (ATCC® TIB-152) and Molm14 was maintained in RPMI-1640 medium or MEMα, respectively and supplemented both with 10% FBS at 37° C. and 5% CO2.
(§5) In antiproliferative assays, compounds were assayed for their growth inhibiting activity towards the described cancer cell lines using the Cell Titer-Glo Luminescent Cell Viability Assay as described by the manufacturer (Promega Corporation). Briefly, 10.000 cells were plated onto 96 well-plates (white with clear bottom (3610, Corning Costar)) in 90 μL media per well immediately before assay. 10 μL of compounds were added at different concentrations (ranging from 50 μM to 6 nM) to each well and cell cultures were incubated 37° C. during 72 h. Vehicle (DMSO) was used as negative control, JQ1 (a pan-BET inhibitor) was used as positive control and all compounds were tested in constant percentage of DMSO (1%). After addition of 50 μL Cell Titer-GLO, shaking 2 minutes and incubating at room temperature 10 minutes, the Luminescence was measured using a Centro luminometer LB960 (Berthold). Dose-response curves were generated and effective dose 50 values (EC50) were calculated using non-linear regression analysis (Graph Pad Prism).

Brd2(BD2) = biological target: T2, Brd2(BD2) (Homo sapiens, UniProt P25440); test: HTRF BET selectivity profile, Brd2(BD2); type: binding; conditions: read-out: Brd2(BD2) IC50
T2 construct: GST tagged bromodomain proteins were purchased from BPS Bioscience; purchased BPS Bioscience
Method: (§6) HTRF assays were performed in white 384 Well Small Volume™ HiBase Polystyrene Microplates (Greiner) with a total working volume of 20 μL. Compounds were dispensed, with 100 nL per well (0.5% final DMSO), from a concentration stock of 10 mM in 100% DMSO and with serial DMSO dilutions, using an Echo® 550 robot from the Access Labcyte platform (Labcyte) and based on the transfer of liquid by acoustic wave. Then, 19.5 μL of buffer is added, using a Multidrop Combi (Thermo Fisher Scientific). […] All HTRF reagents (donor and acceptor) were purchased from CisBio Bioassays and reconstituted according to the supplier protocols. The peptide was purchased from Genic Bio Synthetic. The BRD4(1) protein was produced and purified in the laboratory.
as §2, §3

Brd3(BD2) = biological target: T3, Brd3(BD2) (Homo sapiens, UniProt Q15059); test: HTRF BET selectivity profile, Brd3(BD2); type: binding
T3 construct: GST tagged bromodomain proteins were purchased from BPS Bioscience; purchased BPS Bioscience
Method: as §1, §2, §3

Molm14 cells = test: Cell Titer-Glo cell viability assay, Molm14; type: cell-based; conditions: Homo sapiens, MOLM-14, 72 h, mean of three experiments, NA = IC50 > maximal concentration used
Method: as §4, §5

Brd2(BD1) = biological target: T4, Brd2(BD1) (Homo sapiens, UniProt P25440); test: HTRF BET selectivity profile, Brd2(BD1); type: binding; conditions: for IC50: read-out: Brd2(BD1) IC50; for Ratio 2-1 vs 2-2: selectivity Brd2(BD1) vs Brd2(BD2), HTRF IC50
T4 construct: GST tagged bromodomain proteins were purchased from BPS Bioscience; purchased BPS Bioscience
Method: as §6, §2, §3

Brd4(BD2) = biological target: T5, Brd4(BD2) (Homo sapiens, UniProt O60885); test: HTRF BET selectivity profile, Brd4(BD2); type: binding
T5 construct: GST tagged bromodomain proteins were purchased from BPS Bioscience; purchased BPS Bioscience
Method: as §1, §2, §3

Brd3(BD1) = Brd3(BD1) (Homo sapiens, UniProt Q15059); test: HTRF BET selectivity profile, Brd3(BD1); type: binding; design: GST tagged bromodomain proteins were purchased from BPS Bioscience; purchased BPS Bioscience; conditions: for Ratio 3-1 vs 3-2: selectivity Brd3(BD1) vs Brd3(BD2), HTRF IC50
Method: as §6, §2, §3

BRD4(BD1) [1] = biological target: T6, BRD4(BD1) (Homo sapiens, UniProt O60885); test: HTRF assay, BRD4(BD1)/histone peptide interaction; type: binding; design: made in house; conditions: for IC50: HTRF; for Ratio 4-1 vs 4-2: selectivity Brd4(BD1) vs Brd4(BD2), HTRF IC50
BRD4(BD1) [2] = biological target: T6, BRD4(BD1); test: Isothermal Titration Calorimetry; type: binding; conditions: ITC; read-out: Binding affinity (Kd) to BRD4(1) by Isothermal Titration Calorimetry
Method: FIG. 1. Isothermal Titration Calorimetry (ITC) of 43c. Thermogram (top) and non-linear least squares fit model of the integrated data (bottom) at 15° C. of Brd4 (BD1) […] as a function of the molar ratio of ligand to the protein.
ITC was used to evaluate the thermodynamics parameters of the binding between BRD4 (BD1) and the selected compounds. Titrations were carried out on a MicroCal ITC200 microcalorimeter (GE Healthcare, Piscataway, N.J.). Each experiment was designed using a titrant concentration (protein in the syringe generally between 100 and 400 μM) set 10 to 15 times the analyte concentration (compound in the cell generally between 10 and 40 μM) and using 13 injections at 25° C. A first small injection (generally 0.2 μL) was included in the titration protocol in order to remove air bubbles trapped in the syringe prior titration. Raw data were scaled after setting the zero to the titration saturation heat value. Integrated raw ITC data were fitted to a one site non-linear least squares fit model using the MicroCal Origin plugin as implemented in Origin 7 (Origin Lab). Finally, ΔG and TΔS values were calculated from the fitted ΔH and KA values using the equations ΔG=−R.T.inKA and ΔG=ΔH−TΔS.

61 bromodomains = test: Thermal shift assay selectivity profile on 61 bromodomains; type: binding; conditions: compound at 25 μM
Method: FIG. 3. Thermal Shift Assay (TSA) of 43c. The evaluation was performed on 61 bromodomains. A cut-off at +/−3.5° C. was set.
TSA “Bromoscan” assays (Reaction Biology) were performed in 384 well RT-PCR plate (BioRad) with a total working volume of 15 μL. The “BromoMelT™, containing the 61 GST- or His-tagged-bromodomains, SYPRO® Orange and a mix compounds as control, was purchased from Reaction Biology. For each point, 3 μL of protein (1×) and 12 μL master mix (buffer+SYPRO® Orange+compound at 25 μM or control mix compounds or DMSO (0.5%)) were mixed in plate. The plate was placed in a CFX384 RTQPC (BioRad), and heated 10 seconds at 25° C., then the temperature was increased from 25° C. to 90° C., by increment of 0.5° C. every 30 seconds. The fluorescence was recorded using FRET filters.

[3] = mean of three experiments, NA = IC50 > 50 μM, read-out: Brd4(8D1) IC50
[4] = triplicates, NA = IC50 > maximal concentration of compound used

Sequence of Brd3(BD1) (Q15059 34-140 limits assumed): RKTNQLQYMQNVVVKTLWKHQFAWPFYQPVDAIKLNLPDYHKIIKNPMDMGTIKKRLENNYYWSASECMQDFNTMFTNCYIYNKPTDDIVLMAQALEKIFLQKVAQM
T3 sequence (Q15059 306-415 limits assumed): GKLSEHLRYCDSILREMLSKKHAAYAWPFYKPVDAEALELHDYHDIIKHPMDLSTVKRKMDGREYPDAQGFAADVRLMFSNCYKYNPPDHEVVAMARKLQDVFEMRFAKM
T2 sequence (P25440 344-453 limits assumed): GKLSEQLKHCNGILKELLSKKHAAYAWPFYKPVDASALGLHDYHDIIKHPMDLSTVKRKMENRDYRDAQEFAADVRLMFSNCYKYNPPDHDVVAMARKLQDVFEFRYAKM
T4 sequence (P25440 74-180 limits assumed): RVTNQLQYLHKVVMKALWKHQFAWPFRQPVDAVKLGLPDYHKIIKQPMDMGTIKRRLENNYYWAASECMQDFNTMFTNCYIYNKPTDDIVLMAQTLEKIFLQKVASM

Row | SMILES | IC50 (Brdt(BD1)) | IC50 (Jurkat cells) | IC50 (Brd2(BD2)) | IC50 (Brd3(BD2)) | IC50 (Molm14 cells) | IC50 (Brd2(BD1)) | Ratio 2-1 vs 2-2 (Brd2(BD1)) | IC50 (Brd4(BD2)) | IC50 (Brd3(BD1)) | Ratio 3-1 vs 3-2 (Brd3(BD1)) | IC50 (BRD4(BD1) [1]; [3]) | IC50 (BRD4(BD1) [1]; [4]) | Ratio 4-1 vs 4-2 (BRD4(BD1) [1]) | Kd (BRD4(BD1) [2]) | Bromodomain selectivity profile by thermal shift assay (61 bromodomains) | IC50 (BRD4(BD1) [1]; read-out: IC50 on BRD4(BD1) activity (concentration that inhibits protein-protein interaction by 50%), triplicates, NA = IC50 > maximal concentration of compound used)
1 | CCn1cnc2c1c(=O)[nH]c(=O)n2Cc1ccc(CNS(=O)(=O)c2cc3ccccc3s2)cc1 [Compound 25b] | 7.44 µM | 5.2 µM | 10.5 µM | 12.4 µM | 11.1 µM | 1.38 µM | 8 | 12.8 µM | 1.54 µM | 8 | 0.779 µM | 0.779 µM | 16 | – | – | –
2 | CCn1cnc2c1c(=O)[nH]c(=O)n2Cc1ccc(CNS(=O)(=O)c2ccc3scnc3c2)cc1 [Compound 25c] | 14 µM | 6.1 µM | 23.5 µM | 17.4 µM | 14.8 µM | 4.18 µM | 7 | 21.2 µM | 4.77 µM | 4 | 1.59 µM | 1.6 µM | 13 | – | – | –
3 | CCn1cnc2c1c(=O)[nH]c(=O)n2Cc1ccc(CNS(=O)(=O)c2ccc3c(c2)CCCC(=O)N3)cc1 [Compound 27c] | 0.356 µM | 39.5 µM | 1.61 µM | 3.47 µM | – | 0.336 µM | 5 | 2.78 µM | 0.456 µM | 8 | 0.283 µM | – | 10 | 0.129 µM | pan-BET selective | 0.283 µM
4 | CCn1cnc2c1c(=O)[nH]c(=O)n2Cc1ccc(CNS(=O)(=O)c2cccc(-c3ccccc3)c2)cc1 [Compound 29c] | 7.44 µM | 6.9 µM | 14.7 µM | 18.9 µM | 8.9 µM | 5.47 µM | 3 | 12.2 µM | 1.6 µM | 12 | 0.814 µM | 0.814 µM | 15 | 1.1 µM | – | –
5 | CCn1cnc2c1c(=O)[nH]c(=O)n2Cc1ccc(CNS(=O)(=O)c2ccc(Oc3ccccc3)cc2)cc1 [Compound 30c, N-(4-((7-ethyl-2,6-dioxo-1,2,6,7-tetrahydro-3H-purin-3-yl)methyl)benzyl)-4-phenoxybenzenesulfonamide] | 1.18 µM | 10.3 µM | 2.49 µM | 3.16 µM | 9.2 µM | 0.868 µM | 3 | 4.59 µM | 0.633 µM | 5 | 0.51 µM | 0.51 µM | 9 | 0.641 µM | BRD4(1) and BRD3(1) selective | –
6 | CCn1cnc2c1c(=O)[nH]c(=O)n2Cc1ccc(CNS(=O)(=O)c2ccc(OCc3ccccc3)cc2)cc1 [Compound 31a] | 8.51 µM | 19.4 µM | 12.8 µM | 13.5 µM | 1.8 µM | 1.46 µM | 9 | 9.71 µM | 0.596 µM | 23 | 0.355 µM | 0.355 µM | 27 | 0.433 µM | not pan-BET selective | –
